Legend:
R6/2 mice [1] = assay: Disease phenotype in R6/2 HD mice (weight loss, motor deficits, grip strength, brain atrophy, huntingtin inclusions); assay type: in vivo; settings: oral CoQ10 in chow
Protocol: (§1) The present invention is based, in part, on the discovery that increased level of CoQ10 appears to slow the progressive functional decline in […]. We orally administered CoQ10 at 400 mg/kg, and 1, 5, 10, and 20 g/kg in R6/2 mice starting at weaning in chow formulations.

R6/2 mice [2] = assay: Survival of R6/2 HD mice on oral CoQ10 in chow; assay type: in vivo
Protocol: There is substantial evidence that bioenergetic defects may play a role in the pathogenesis of HD. A possible therapy for diseases in which there is defective energy metabolism is to administer the mitochondrial cofactor coenzyme Q10(CoQ10).
as §1

[3] = oral administration, 400 mg/kg, previously demonstrated

COC1=C(OC)C(=O)C(C/C=C(\C)CC/C=C(\C)CC/C=C(\C)CC/C=C(\C)CC/C=C(\C)CC/C=C(\C)CC/C=C(\C)CC/C=C(\C)CC/C=C(\C)CCC=C(C)C)=C(C)C1=O [CoQ10, Coenzyme Q10]
development of brain atrophy (R6/2 mice [1]): significantly delayed
development of grip strength deficit (R6/2 mice [1]): significantly delayed
development of huntingtin inclusions (R6/2 mice [1]): significantly delayed
development of motor deficits (R6/2 mice [1]): significantly delayed
development of weight loss (R6/2 mice [1]): significantly delayed
neuroprotection (R6/2 mice [2]; [3]): neuroprotective
survival extension (R6/2 mice [2]; [3]): 14.5%
survival extension (R6/2 mice [2]; oral in chow from weaning, 5 g/kg (greatest extension), vs untreated R6/2 mice): 21.3%
survival in comparison to untreated R6/2 mice (R6/2 mice [2]; oral in chow from weaning, all doses (400 mg/kg, 1, 5, 10, 20 g/kg)): significantly extended survival at all doses

— patent US7901675B2, “Method of using coenzyme Q10 to treat Huntington's disease” (U.S. Department of Veterans Affairs, priority 2004, dated 2011)
